Read-outs that look alike come from different tables or passages of the source. Marks after values point to notes of the source that are not given here.
How the values were obtained:
[1] = Triterpenoid levels in mouse brain after feeding in diet (LC/MS); assay type: in vivo; conditions: CD-1 mice, 200 or 400 mg/kg diet for 3.5 days
Protocol: CD-1 mice were fed either 200 or 400 mg/kg diet of either TP-319 or TP-500 for 3.5 days, and TP levels in the brains of the mice were analyzed by LC/MS. The structures of TP-319 and TP-500 are shown below.

[2] = system: IFNγ-induced NO production in RAW264.7 macrophages; assay: Suppression of IFNγ-induced NO production (Griess reagent); assay type: cell-based, mouse; conditions: Mus musculus; RAW264.7, 20 ng/ml IFNγ 24 h, 2 h pre-treatment
Protocol: (§1) FIGS. 1-8 and 32-34. Inhibition of NO Production. RAW264.7 macrophages were pre-treated with DMSO or drugs at various concentrations (nM) for 2 hours, then treated with 20 ng/ml IFNγ for 24 hours. NO concentration in media was determined using a Griess reagent system; cell viability was determined using WST-1 reagent.
(§2) Nitric Oxide production and cell viability. RAW264.7 macrophages were pre-treated with DMSO or drugs for 2 hours, then treated with recombinant mouse IFNγ (Sigma) for 24 hours. NO concentration in media was determined using the Griess reagent system (Promega). Cell viability was determined using WST-1 reagent (Roche).

[3] = system: RAW264.7 macrophages; assay: Cell viability, WST-1 reagent; assay type: cell-based, mouse; conditions: Mus musculus, RAW264.7 (20 ng/ml IFNγ)
Protocol: as §1, §2

[4] = system: HO-1; assay: Nrf2 target gene induction, HO-1 mRNA (qPCR); assay type: cell-based, human; conditions: MDA-MB-435 cells
Protocol: (§3) FIGS. 17-20. Induction of HO-1. MDA-MB-435 human melanoma cells were treated with vehicle (DMSO) or the indicated compounds and concentrations for 16 hours. HO-1 mRNA levels were quantified using qPCR and were normalized relative to a DMSO-treated sample run in parallel. Values are averages of duplicate wells.
as §3, with “FIG. 21.” for “FIGS. 17-20.”, “HO-1, TrxR1 and γ-GCS.” for “HO-1.”, “HO-1, thioredoxin reductase-1 (TrxR1), and γ-glutamylcysteine synthetase (γ-GCS)” for “HO-1”
as §3, with “Nrf2 target gene induction.” for “FIGS. 17-20. Induction of HO-1.”, “HO-1, thioredoxin reductase-1 (TrxR1), γ-glutamylcysteine synthetase (γ-GCS), and ferritin heavy chain” for “HO-1”, “wells. Primer sequences are as follows.” for “wells.”

[5] = system: thioredoxin reductase-1 (TrxR1); assay: Nrf2 target gene induction, TrxR1 mRNA (qPCR); assay type: cell-based, human; conditions: MDA-MB-435 cells; for TrxR1 induction: 400 nM, percent of induction observed for 402
Protocol: as §3, with “FIG. 21.” for “FIGS. 17-20.”, “HO-1, TrxR1 and γ-GCS.” for “HO-1.”, “HO-1, thioredoxin reductase-1 (TrxR1), and γ-glutamylcysteine synthetase (γ-GCS)” for “HO-1”
as §3, with “FIG. 22.” for “FIGS. 17-20.”, “TrxR1.” for “HO-1.”, “Thioredoxin reductase-1 (TrxR1)” for “HO-1”, “wells. Compounds 401, 402-19 and 402-53 are comparison compounds (see Example 1).” for “wells.”
as §3, with “Nrf2 target gene induction.” for “FIGS. 17-20. Induction of HO-1.”, “HO-1, thioredoxin reductase-1 (TrxR1), γ-glutamylcysteine synthetase (γ-GCS), and ferritin heavy chain” for “HO-1”, “wells. Primer sequences are as follows.” for “wells.”

[6] = system: γ-glutamylcysteine synthetase (γ-GCS); assay: Nrf2 target gene induction, γ-GCS mRNA (qPCR); assay type: cell-based, human; conditions: MDA-MB-435 cells
Protocol: as §3, with “FIG. 21.” for “FIGS. 17-20.”, “HO-1, TrxR1 and γ-GCS.” for “HO-1.”, “HO-1, thioredoxin reductase-1 (TrxR1), and γ-glutamylcysteine synthetase (γ-GCS)” for “HO-1”
as §3, with “FIG. 23.” for “FIGS. 17-20.”, “γ-GCS.” for “HO-1.”, “γ-glutamylcysteine synthetase (γ-GCS)” for “HO-1”
as §3, with “Nrf2 target gene induction.” for “FIGS. 17-20. Induction of HO-1.”, “HO-1, thioredoxin reductase-1 (TrxR1), γ-glutamylcysteine synthetase (γ-GCS), and ferritin heavy chain” for “HO-1”, “wells. Primer sequences are as follows.” for “wells.”

[7] = system: mice; conditions: sesame oil, N=4
[8] = system: iNOS; assay: iNOS suppression, Western blot; assay type: cell-based, mouse; conditions: RAW264.7 (20 ng/ml IFNγ)
[9] = system: NQO1; assay: Nrf2 target gene induction, NQO1; assay type: cell-based, human; conditions: MDA-MB-435 cells, 250 nM; fold induction above DMSO control
[10] = system: Ferritin heavy chain; assay: Induction of ferritin heavy chain mRNA (qPCR); assay type: cell-based, human; conditions: MDA-MB-435 cells, 16 hours
Protocol: as §3, with “FIG. 24.” for “FIGS. 17-20.”, “Ferritin Heavy Chain.” for “HO-1.”, “Ferritin heavy chain” for “HO-1”
as §3, with “Nrf2 target gene induction.” for “FIGS. 17-20. Induction of HO-1.”, “HO-1, thioredoxin reductase-1 (TrxR1), γ-glutamylcysteine synthetase (γ-GCS), and ferritin heavy chain” for “HO-1”, “wells. Primer sequences are as follows.” for “wells.”

[11] = system: Sprague-Dawley rats; conditions: Sprague-Dawley rats, 1,500 mg/m^2/day for 14 days
[12] = 400 nM, percent of induction observed for 402
[13] = 250 nM, fold induction above DMSO control

| Compound | level detected in mouse brain compared with CDDO-EA (TP-319) [1] | IC50 [2] | IC50 [3] | HO-1 induction [4, 12] | TrxR1 induction [5] | γ-GCS induction [6, 12] | Number of Deaths ([7]; oral gavage QDx14, 10 mg/kg) | Number of Deaths ([7]; oral gavage QDx14, 50 mg/kg) | Number of Deaths ([7]; oral gavage QDx14, 100 mg/kg) | Number of Deaths ([7]; oral gavage QDx14, 250 mg/kg) | iNOS suppr. WB [8] | HO-1 induction [4, 13] | TrxR1 mRNA induction: concentration needed compared with unsaturated counterpart (402, 404) ([5]; 16 hours) | γ-GCS induction [6, 13] | γ-GCS mRNA induction: concentration needed compared with unsaturated counterpart (402, 404) ([6]; 16 hours) | NQO1 induction [9] | Ferritin heavy chain mRNA induction: concentration needed compared with unsaturated counterpart (402, 404) [10] | highest dose without significant toxicity relative to the MTD of RTA 402 in this species [11] |
| --- | --- | --- | --- | --- | --- | --- | --- | --- | --- | --- | --- | --- | --- | --- | --- | --- | --- | --- |
| CC1(C)CC[C@]2(C(=O)NCC(F)(F)F)CC[C@]3(C)[C@H](C(=O)C=C4[C@@]5(C)C=C(C#N)C(=O)C(C)(C)[C@@H]5CC[C@]43C)[C@@H]2C1 [TP-500] | Higher Levels | – | – | – | – | – | – | – | – | – | – | – | – | – | – | – | – | – |
| CC1(C)CC[C@]2(C(=O)O)CC[C@]3(C)[C@H](C(=O)CC4[C@@]5(C)C=C(C#N)C(=O)C(C)(C)[C@@H]5CC[C@]43C)[C@@H]2C1 (stereo partly drawn) [Compound 63196, (4aS,6aR,6bR,8aR,12aR,14aR,14bS)-11-cyano-2,2,6a,6b,9,9,12a-heptamethyl-10,14-dioxo-1,2,3,4,4a,5,6,6a,6b,7,8,8a,9,10,12a,12b,13,14,14a,14b-icosahydropicene-4a-carboxylic acid] | – | ~75 nM | > 200 nM | 1% | 48% | 26% | 0 | 1* | 0 | 1 | – | – | – | – | – | – | – | – |
| COC(=O)[C@]12CCC(C)(C)C[C@H]1[C@H]1C(=O)CC3[C@@]4(C)C=C(C#N)C(=O)C(C)(C)[C@@H]4CC[C@@]3(C)[C@]1(C)CC2 (stereo partly drawn) [Compound 63101, (4aS,6aR,6bR,8aR,12aR,14aR,14bS)-methyl 11-cyano-2,2,6a,6b,9,9,12a-heptamethyl-10,14-dioxo-1,2,3,4,4a,5,6,6a,6b,7,8,8a,9,10,12a,12b,13,14,14a,14b-icosahydropicene-4a-carboxylate] | – | ~12 nM | 200 nM | 4% | 47% | 53% | 0 | 0 | 0 | 0 | >90% | 3 fold | higher concentrations | 5 fold | higher concentrations | 2 fold | higher concentrations | 50 fold |

Reference: patent US7915402B2, “Antioxidant inflammation modulators: oleanolic acid derivatives with saturation in the C-ring” (Reata Pharmaceuticals, Inc., priority 2008, dated 2011)
